Test results taken from ChEMBL document CHEMBL1201862, “PubChem BioAssay data set” (2004).
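Following 48 hours of exposure in 96-well plates, responses at five concentrations were used to interpolate endpoints linearly. GI50: concentration for 50% inhibition of growth.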 Calls of active or inactive are those of the source. Rule as the data show it: active = GI50 up to about 1.1 µM and inactive = higher.

Tests used:
Assay in all cases: NCI-60 cell line screen, 48 h
SF-539 = system: SF-539
HT-29 = system: HT-29
RXF 393 = system: RXF 393
DMS-114 = system: DMS-114
UO-31 = system: UO-31
SK-MEL-2 = system: SK-MEL-2
SK-OV-3 = system: SK-OV-3
UACC-257 = system: UACC-257
HCC 2998 = system: HCC 2998
HCT-15 = system: HCT-15
NCI-H23 = system: NCI-H23
HOP-62 = system: HOP-62
EKVX = system: EKVX
A498 = system: A498
RPMI-8226 = system: RPMI-8226
CAKI-1 = system: CAKI-1
Malme-3M = system: Malme-3M
OVCAR-8 = system: OVCAR-8
RXF 631 = system: RXF 631
OVCAR-5 = system: OVCAR-5
SN12C = system: SN12C
SF-268 = system: SF-268
IGROV-1 = system: IGROV-1
TK-10 = system: TK-10
M19-MEL = system: M19-MEL
SK-MEL-28 = system: SK-MEL-28
HCT-116 = system: HCT-116
LOX IMVI = system: LOX IMVI
HOP-92 = system: HOP-92
COLO 205 = system: COLO 205
CCRF-CEM = system: CCRF-CEM
A549 = system: A549
KM12 = system: KM12
LXFL 529 = system: LXFL 529
NCI-H522 = system: NCI-H522
DLD-1 = system: DLD-1
HL-60 = system: HL-60
SW-620 = system: SW-620
SF-295 = system: SF-295
MOLT-4 = system: MOLT-4
OVCAR-4 = system: OVCAR-4
U-251 = system: U-251
DMS-273 = system: DMS-273
NCI-H226 = system: NCI-H226
SNB-19 = system: SNB-19
K562 = system: K562
UACC-62 = system: UACC-62
KM-20L2 = system: KM-20L2
SNB-78 = system: SNB-78
M14 = system: M14
786-0 = system: 786-0
ACHN = system: ACHN
NCI-H460 = system: NCI-H460
OVCAR-3 = system: OVCAR-3
SNB-75 = system: SNB-75
XF498 = system: XF498
SK-MEL-5 = system: SK-MEL-5
SR = system: SR

## COc1ccc(C2=Nc3ccccc3SC(C)C2)cc1 (stereo not given)
SF-539
  GI50: > 100 µM (inactive)
HT-29
  GI50: 62.1 µM (inactive)
RXF 393
  GI50: > 100 µM (inactive)
DMS-114
  GI50: 73.3 µM (inactive)
UO-31
  GI50: > 100 µM (inactive)
SK-MEL-2
  GI50: > 100 µM (inactive)
SK-OV-3
  GI50: > 100 µM (inactive)
UACC-257
  GI50: > 100 µM (inactive)
HCC 2998
  GI50: > 100 µM (inactive)
HCT-15
  GI50: > 100 µM
NCI-H23
  GI50: > 100 µM (inactive)
HOP-62
  GI50: > 100 µM (inactive)
EKVX
  GI50: > 100 µM (inactive)
A498
  GI50: > 100 µM (inactive)
RPMI-8226
  GI50: 17.3 µM (inactive)
CAKI-1
  GI50: > 100 µM (inactive)
Malme-3M
  GI50: > 100 µM (inactive)
OVCAR-8
  GI50: > 100 µM (inactive)
RXF 631
  GI50: 68.4 µM (inactive)
OVCAR-5
  GI50: > 100 µM (inactive)
SN12C
  GI50: > 100 µM (inactive)
SF-268
  GI50: > 100 µM (inactive)
IGROV-1
  GI50: > 100 µM (inactive)
TK-10
  GI50: > 100 µM (inactive)
M19-MEL
  GI50: 94.6 µM (inactive)
SK-MEL-28
  GI50: > 100 µM (inactive)
HCT-116
  GI50: 18 µM (inactive)
LOX IMVI
  GI50: 38.4 µM (inactive)
HOP-92
  GI50: > 100 µM (inactive)
COLO 205
  GI50: > 100 µM (inactive)
CCRF-CEM
  GI50: 33.4 µM (inactive)
A549
  GI50: > 100 µM (inactive)
KM12
  GI50: 32.2 µM (inactive)
LXFL 529
  GI50: 85.1 µM (inactive)
NCI-H522
  GI50: > 100 µM (inactive)
DLD-1
  GI50: 81.8 µM (inactive)
HL-60
  GI50: 46 µM (inactive)
SW-620
  GI50: > 100 µM (inactive)
SF-295
  GI50: > 100 µM (inactive)
MOLT-4
  GI50: 49.8 µM (inactive)
OVCAR-4
  GI50: > 100 µM (inactive)
U-251
  GI50: 92.7 µM (inactive)
DMS-273
  GI50: 78.7 µM (inactive)
NCI-H226
  GI50: > 100 µM (inactive)
SNB-19
  GI50: > 100 µM (inactive)
K562
  GI50: 24.4 µM (inactive)
UACC-62
  GI50: > 100 µM (inactive)
KM-20L2
  GI50: > 100 µM (inactive)
SNB-78
  GI50: > 100 µM (inactive)
M14
  GI50: > 100 µM (inactive)
786-0
  GI50: > 100 µM (inactive)
ACHN
  GI50: > 100 µM (inactive)
NCI-H460
  GI50: > 100 µM (inactive)
OVCAR-3
  GI50: > 100 µM (inactive)
SNB-75
  GI50: > 100 µM (inactive)

## CCN(c1ccc(Br)cc1)c1c(Br)c(=O)nc2ccccn12
SF-539
  GI50: > 100 µM (inactive)
HT-29
  GI50: > 100 µM (inactive)
DMS-114
  GI50: 70.6 µM (inactive)
UO-31
  GI50: 35.7 µM (inactive)
SK-MEL-2
  GI50: > 100 µM (inactive)
SK-OV-3
  GI50: 51.5 µM (inactive)
HCT-15
  GI50: 99.1 µM
NCI-H23
  GI50: > 100 µM (inactive)
HOP-62
  GI50: > 100 µM (inactive)
EKVX
  GI50: 73.3 µM (inactive)
A498
  GI50: > 100 µM (inactive)
RPMI-8226
  GI50: 74.5 µM (inactive)
CAKI-1
  GI50: 93.1 µM (inactive)
Malme-3M
  GI50: 64.9 µM (inactive)
OVCAR-8
  GI50: > 100 µM (inactive)
XF498
  GI50: > 100 µM (inactive)
RXF 631
  GI50: > 100 µM (inactive)
OVCAR-5
  GI50: > 100 µM (inactive)
SN12C
  GI50: > 100 µM (inactive)
SK-MEL-5
  GI50: 59.8 µM (inactive)
SF-268
  GI50: > 100 µM (inactive)
IGROV-1
  GI50: > 100 µM (inactive)
TK-10
  GI50: > 100 µM (inactive)
M19-MEL
  GI50: > 100 µM (inactive)
SK-MEL-28
  GI50: > 100 µM (inactive)
HCT-116
  GI50: > 100 µM (inactive)
HOP-92
  GI50: 57.3 µM (inactive)
COLO 205
  GI50: > 100 µM (inactive)
CCRF-CEM
  GI50: > 100 µM (inactive)
A549
  GI50: > 100 µM (inactive)
KM12
  GI50: > 100 µM (inactive)
LXFL 529
  GI50: > 100 µM (inactive)
NCI-H522
  GI50: 62.2 µM (inactive)
DLD-1
  GI50: > 100 µM (inactive)
SW-620
  GI50: > 100 µM (inactive)
MOLT-4
  GI50: > 100 µM (inactive)
U-251
  GI50: > 100 µM (inactive)
DMS-273
  GI50: 83.2 µM (inactive)
NCI-H226
  GI50: > 100 µM (inactive)
SNB-19
  GI50: > 100 µM (inactive)
SR
  GI50: > 100 µM (inactive)
K562
  GI50: 90.6 µM (inactive)
UACC-62
  GI50: 65 µM (inactive)
KM-20L2
  GI50: > 100 µM (inactive)
SNB-78
  GI50: > 100 µM (inactive)
M14
  GI50: > 100 µM (inactive)
786-0
  GI50: > 100 µM (inactive)
ACHN
  GI50: > 100 µM (inactive)
NCI-H460
  GI50: > 100 µM (inactive)
OVCAR-3
  GI50: > 100 µM (inactive)
SNB-75
  GI50: > 100 µM (inactive)

## CN(C(=O)C12C3(C(=O)C(C)(C)C)C4C5(C#N)C3C1(C(=O)C(C)(C)C)C5C42C(=O)C(C)(C)C)C(C)(C)C (stereo not given)
SF-539
  GI50: > 50 µM (inactive)
HT-29
  GI50: > 50 µM (inactive)
DMS-114
  GI50: 17.7 µM (inactive)
UO-31
  GI50: 29.6 µM (inactive)
SK-OV-3
  GI50: > 50 µM (inactive)
UACC-257
  GI50: 19.6 µM (inactive)
HCC 2998
  GI50: > 50 µM (inactive)
HCT-15
  GI50: > 50 µM
NCI-H23
  GI50: 40.6 µM (inactive)
HOP-62
  GI50: > 50 µM (inactive)
EKVX
  GI50: 43.3 µM (inactive)
A498
  GI50: > 50 µM (inactive)
CAKI-1
  GI50: 33.8 µM (inactive)
Malme-3M
  GI50: > 50 µM (inactive)
OVCAR-8
  GI50: > 50 µM (inactive)
XF498
  GI50: 10.4 µM (inactive)
RXF 631
  GI50: 42.4 µM (inactive)
OVCAR-5
  GI50: > 50 µM (inactive)
SN12C
  GI50: > 50 µM (inactive)
SK-MEL-5
  GI50: > 50 µM (inactive)
SF-268
  GI50: 32.5 µM (inactive)
IGROV-1
  GI50: > 50 µM (inactive)
TK-10
  GI50: > 50 µM (inactive)
M19-MEL
  GI50: > 50 µM (inactive)
SK-MEL-28
  GI50: > 50 µM (inactive)
HCT-116
  GI50: 24.2 µM (inactive)
HOP-92
  GI50: 30.8 µM (inactive)
COLO 205
  GI50: > 50 µM (inactive)
CCRF-CEM
  GI50: 16.6 µM (inactive)
A549
  GI50: > 50 µM (inactive)
KM12
  GI50: > 50 µM (inactive)
LXFL 529
  GI50: 21.4 µM (inactive)
NCI-H522
  GI50: 14.5 µM (inactive)
DLD-1
  GI50: 35.3 µM (inactive)
HL-60
  GI50: 16.1 µM (inactive)
SW-620
  GI50: > 50 µM (inactive)
SF-295
  GI50: > 50 µM (inactive)
MOLT-4
  GI50: 20 µM (inactive)
OVCAR-4
  GI50: 31.6 µM (inactive)
U-251
  GI50: > 50 µM (inactive)
DMS-273
  GI50: 42.8 µM (inactive)
NCI-H226
  GI50: > 50 µM (inactive)
SNB-19
  GI50: > 50 µM (inactive)
SR
  GI50: 43.8 µM (inactive)
K562
  GI50: 27.2 µM (inactive)
UACC-62
  GI50: 48.8 µM (inactive)
KM-20L2
  GI50: > 50 µM (inactive)
SNB-78
  GI50: > 50 µM (inactive)
M14
  GI50: > 50 µM (inactive)
786-0
  GI50: > 50 µM (inactive)
ACHN
  GI50: 25.2 µM (inactive)
NCI-H460
  GI50: > 50 µM (inactive)
OVCAR-3
  GI50: 38.9 µM (inactive)
SNB-75
  GI50: 8.95 µM (inactive)
